# According to ChEMBL document CHEMBL5126517, “Structure-Activity Relationship in the Leucettine Family of Kinase Inhibitors” (J Med Chem, 2022):
# How the values were obtained:
# [1] = biological target: Dual specificity protein kinase CLK4 (Mus musculus, UniProt O35493); assay: Inhibition of GST-fused mouse recombinant CLK4 expressed in Escherichia coli using GRSRSRSRSRSR peptide as substrate incubated for 30 mins in presence of ATP by scintillation counting method
# [2] = biological target: Dual specificity protein kinase CLK3 (Mus musculus, UniProt O35492); assay: Inhibition of GST-fused mouse recombinant CLK3 expressed in Escherichia coli using GRSRSRSRSRSR peptide as substrate incubated for 30 mins in presence of ATP by scintillation counting method
# [3] = biological target: Dual specificity protein kinase CLK1 (Mus musculus, UniProt P22518); assay: Inhibition of GST-fused mouse recombinant CLK1 expressed in Escherichia coli using GRSRSRSRSRSR peptide as substrate incubated for 30 mins in presence of ATP by scintillation counting method
# [4] = biological target: Dual specificity protein kinase CLK2 (Mus musculus, UniProt O35491); assay: Inhibition of mouse recombinant GST-fused CLK2 expressed in Escherichia coli using GRSRSRSRSRSR peptide as substrate incubated for 30 mins in presence of ATP by scintillation counting method
# [5] = biological target: Dual specificity tyrosine-phosphorylation-regulated kinase 1A (Homo sapiens, UniProt Q13627); assay: Inhibition of GST-fused human recombinant DYRK1A expressed in Escherichia coli using GRSRSRSRSRSR peptide as substrate incubated for 30 mins in presence of ATP by scintillation counting method
# [6] = biological target: Dual specificity tyrosine-phosphorylation-regulated kinase 1B (Homo sapiens, UniProt Q9Y463)
# [7] = biological target: Serine/threonine-protein kinase pim-1 (Homo sapiens, UniProt P11309); assay: Inhibition of human recombinant Pim1 expressed in Escherichia coli using histone H1 as substrate incubated for 30 mins in presence of ATP by scintillation counting method
# Casein kinase 2 = Casein kinase 2 (Homo sapiens, UniProt P67870+P68400+P19784+Q8NEV1); assay: Inhibition of human recombinant CK2 using RRRDDDSDDD peptide as substrate incubated for 30 mins in presence of ATP by scintillation counting method; assay type: protein assay
# HT-22 = assay: Neuroprotective activity against glutamate-induced cell death in mouse HT-22 cells treated for 24 hrs by MTS assay; assay type: functional, cell-based; details: HT-22, 24 h
# U2OS = assay: Induction of PI3K/mTor-dependent autophagy in human U2OS cells assessed as number of LC3 foci per cell at 10 uM measured after 4 hrs; assay type: cell-based; details: filed as activator
# Cannabinoid receptor 1 = Cannabinoid receptor 1 (Homo sapiens, UniProt P21554); assay: Antagonist activity at CP-55940-activated CB1 receptor (unknown origin) at 10 uM by beta-arrestin assay relative to control; assay type: functional; parameters: scale not given: the % may be the effect or the level left
# [8] = Neurotoxicity against mouse HT-22 cells assessed as cell survival at 20 uM treated for 24 hrs by MTS assay; assay type: toxicity, cell-based; details: ht-22, 24 h
# [9] = biological target: Glycogen synthase kinase-3 (Sus scrofa, UniProt B2LUN4+I6LNT8); assay: Inhibition of porcine brain GSK-3alpha/beta using YRRAAVPPSPSLSRHSSPHQpSEDEEE as substrate incubated for 30 mins in presence of ATP by scintillation counting method; assay type: tissue-based
# [10] = biological target: T1, Dual specificity tyrosine-phosphorylation-regulated kinase 2 (Homo sapiens, UniProt Q92630); assay: Inhibition of GST-fused human recombinant DYRK2 expressed in Escherichia coli using GRSRSRSRSRSR peptide as substrate incubated for 30 mins in presence of ATP by scintillation counting method
# T1 sequence (Q92630 whole entry): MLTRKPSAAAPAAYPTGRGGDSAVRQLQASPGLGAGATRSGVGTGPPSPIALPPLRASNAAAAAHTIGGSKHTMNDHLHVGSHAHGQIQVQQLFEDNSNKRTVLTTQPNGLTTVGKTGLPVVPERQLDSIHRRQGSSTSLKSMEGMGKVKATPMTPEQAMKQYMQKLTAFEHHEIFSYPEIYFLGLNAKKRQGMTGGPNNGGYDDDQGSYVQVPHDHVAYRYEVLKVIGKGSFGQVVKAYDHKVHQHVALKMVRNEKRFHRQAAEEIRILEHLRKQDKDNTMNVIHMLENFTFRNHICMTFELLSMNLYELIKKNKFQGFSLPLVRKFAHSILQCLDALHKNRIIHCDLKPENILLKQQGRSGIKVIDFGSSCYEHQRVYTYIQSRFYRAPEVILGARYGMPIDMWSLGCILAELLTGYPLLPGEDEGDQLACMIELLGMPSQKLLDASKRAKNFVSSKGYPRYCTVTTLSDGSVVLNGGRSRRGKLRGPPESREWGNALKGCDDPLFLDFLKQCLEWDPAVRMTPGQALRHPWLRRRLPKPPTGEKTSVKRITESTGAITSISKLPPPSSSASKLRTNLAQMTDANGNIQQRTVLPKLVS
# [11] = biological target: T2, Dual specificity tyrosine-phosphorylation-regulated kinase 3 (Homo sapiens, UniProt O43781); assay: Inhibition of GST-fused human recombinant DYRK3 expressed in Escherichia coli using GRSRSRSRSRSR peptide as substrate incubated for 30 mins in presence of ATP by scintillation counting method
# T2 sequence (O43781 whole entry): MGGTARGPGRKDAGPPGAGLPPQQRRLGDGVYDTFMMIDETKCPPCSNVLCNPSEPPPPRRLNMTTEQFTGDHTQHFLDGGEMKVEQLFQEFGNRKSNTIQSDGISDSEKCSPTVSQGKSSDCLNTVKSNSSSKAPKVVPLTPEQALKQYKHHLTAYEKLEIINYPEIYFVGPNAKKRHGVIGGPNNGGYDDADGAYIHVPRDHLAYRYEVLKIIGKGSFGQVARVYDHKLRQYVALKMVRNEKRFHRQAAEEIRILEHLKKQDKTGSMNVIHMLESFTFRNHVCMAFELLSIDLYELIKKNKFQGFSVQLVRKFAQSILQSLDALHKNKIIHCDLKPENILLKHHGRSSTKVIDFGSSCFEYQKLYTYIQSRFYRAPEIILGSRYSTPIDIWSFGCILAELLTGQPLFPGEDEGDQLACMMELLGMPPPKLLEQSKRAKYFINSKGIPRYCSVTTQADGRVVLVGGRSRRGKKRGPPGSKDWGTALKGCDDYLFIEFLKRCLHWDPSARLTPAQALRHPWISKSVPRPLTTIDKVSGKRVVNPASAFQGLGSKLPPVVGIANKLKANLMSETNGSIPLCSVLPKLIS
# Chain of Dual specificity protein kinase CLK1 (P22518 whole entry, the tested form may be a part): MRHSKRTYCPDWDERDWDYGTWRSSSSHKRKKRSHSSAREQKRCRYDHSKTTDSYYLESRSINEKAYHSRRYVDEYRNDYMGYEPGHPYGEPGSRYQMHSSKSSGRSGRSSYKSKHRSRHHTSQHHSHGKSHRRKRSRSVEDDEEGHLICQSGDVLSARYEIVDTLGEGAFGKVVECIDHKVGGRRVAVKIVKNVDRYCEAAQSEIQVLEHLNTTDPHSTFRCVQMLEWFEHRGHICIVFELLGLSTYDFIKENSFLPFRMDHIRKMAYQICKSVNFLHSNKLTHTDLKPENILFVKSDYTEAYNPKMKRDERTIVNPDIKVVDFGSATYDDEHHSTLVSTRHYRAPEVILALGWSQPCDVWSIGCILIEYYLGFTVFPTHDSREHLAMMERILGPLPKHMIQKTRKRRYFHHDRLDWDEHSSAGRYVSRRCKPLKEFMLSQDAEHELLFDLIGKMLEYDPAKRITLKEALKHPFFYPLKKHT
# Chain of Dual specificity protein kinase CLK2 (O35491 whole entry, the tested form may be a part): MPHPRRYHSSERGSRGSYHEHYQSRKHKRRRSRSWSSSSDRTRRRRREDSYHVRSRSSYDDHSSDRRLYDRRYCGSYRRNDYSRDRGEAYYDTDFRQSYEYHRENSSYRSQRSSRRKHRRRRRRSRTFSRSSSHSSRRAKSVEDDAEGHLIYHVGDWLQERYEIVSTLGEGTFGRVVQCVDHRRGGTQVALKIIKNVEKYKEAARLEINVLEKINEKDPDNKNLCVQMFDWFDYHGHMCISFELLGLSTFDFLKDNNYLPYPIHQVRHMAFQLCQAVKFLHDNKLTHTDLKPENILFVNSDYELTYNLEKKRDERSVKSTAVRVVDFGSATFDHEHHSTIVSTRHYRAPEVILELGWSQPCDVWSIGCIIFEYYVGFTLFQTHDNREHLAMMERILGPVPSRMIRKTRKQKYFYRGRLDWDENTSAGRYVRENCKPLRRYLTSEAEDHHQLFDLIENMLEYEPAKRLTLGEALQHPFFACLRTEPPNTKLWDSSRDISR
# Chain of Cannabinoid receptor 1 (P21554 whole entry): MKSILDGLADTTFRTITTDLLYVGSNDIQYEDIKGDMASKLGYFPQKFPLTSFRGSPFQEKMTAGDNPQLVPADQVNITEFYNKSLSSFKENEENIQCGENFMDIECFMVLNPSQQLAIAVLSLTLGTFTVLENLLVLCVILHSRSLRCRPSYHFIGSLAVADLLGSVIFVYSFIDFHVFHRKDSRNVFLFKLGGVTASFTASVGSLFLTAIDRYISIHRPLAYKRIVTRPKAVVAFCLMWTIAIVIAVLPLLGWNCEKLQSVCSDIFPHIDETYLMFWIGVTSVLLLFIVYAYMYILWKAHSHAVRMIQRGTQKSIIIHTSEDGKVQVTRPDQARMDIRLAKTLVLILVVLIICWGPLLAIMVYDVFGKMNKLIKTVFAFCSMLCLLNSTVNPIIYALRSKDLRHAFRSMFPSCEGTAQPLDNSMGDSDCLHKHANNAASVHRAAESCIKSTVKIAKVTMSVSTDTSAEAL
# Chain of Dual specificity protein kinase CLK4 (O35493 whole entry, the tested form may be a part): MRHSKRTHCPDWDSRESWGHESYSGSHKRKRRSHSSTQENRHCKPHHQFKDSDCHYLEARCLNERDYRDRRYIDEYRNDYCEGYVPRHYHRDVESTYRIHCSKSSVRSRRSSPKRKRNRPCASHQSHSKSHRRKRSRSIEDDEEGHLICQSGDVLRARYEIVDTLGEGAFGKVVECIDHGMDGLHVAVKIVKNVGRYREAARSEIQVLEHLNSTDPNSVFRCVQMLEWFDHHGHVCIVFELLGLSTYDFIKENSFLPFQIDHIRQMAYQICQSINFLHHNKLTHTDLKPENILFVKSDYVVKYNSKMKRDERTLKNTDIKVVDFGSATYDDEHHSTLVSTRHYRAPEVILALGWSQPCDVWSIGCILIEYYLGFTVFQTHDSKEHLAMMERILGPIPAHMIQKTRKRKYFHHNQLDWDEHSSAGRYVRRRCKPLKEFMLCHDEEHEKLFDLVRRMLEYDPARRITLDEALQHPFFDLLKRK
# Chain of Dual specificity protein kinase CLK3 (O35492 whole entry, the tested form may be a part): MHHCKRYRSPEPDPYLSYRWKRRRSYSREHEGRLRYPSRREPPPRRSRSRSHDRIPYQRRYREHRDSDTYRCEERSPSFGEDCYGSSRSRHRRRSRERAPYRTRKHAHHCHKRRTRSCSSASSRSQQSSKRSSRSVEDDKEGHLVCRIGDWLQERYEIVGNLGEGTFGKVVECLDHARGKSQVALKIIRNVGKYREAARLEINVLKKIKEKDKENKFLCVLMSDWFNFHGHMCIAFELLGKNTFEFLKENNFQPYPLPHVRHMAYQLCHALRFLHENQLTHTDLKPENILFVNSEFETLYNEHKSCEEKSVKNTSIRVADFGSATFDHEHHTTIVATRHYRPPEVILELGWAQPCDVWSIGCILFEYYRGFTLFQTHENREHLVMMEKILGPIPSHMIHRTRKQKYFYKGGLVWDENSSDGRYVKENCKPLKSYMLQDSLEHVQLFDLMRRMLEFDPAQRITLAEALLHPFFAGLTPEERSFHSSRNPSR
# Chain of Serine/threonine-protein kinase pim-1 (P11309 whole entry): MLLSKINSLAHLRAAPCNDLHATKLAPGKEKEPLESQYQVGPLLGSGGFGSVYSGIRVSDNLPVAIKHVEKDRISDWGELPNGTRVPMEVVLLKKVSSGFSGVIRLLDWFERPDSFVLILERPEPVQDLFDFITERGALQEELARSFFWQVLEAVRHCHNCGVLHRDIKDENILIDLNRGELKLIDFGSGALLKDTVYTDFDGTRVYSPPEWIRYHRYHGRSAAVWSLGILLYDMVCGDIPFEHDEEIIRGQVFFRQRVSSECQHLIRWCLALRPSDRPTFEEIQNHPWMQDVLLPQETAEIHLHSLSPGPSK
# Chain of Dual specificity tyrosine-phosphorylation-regulated kinase 1B (Q9Y463 whole entry): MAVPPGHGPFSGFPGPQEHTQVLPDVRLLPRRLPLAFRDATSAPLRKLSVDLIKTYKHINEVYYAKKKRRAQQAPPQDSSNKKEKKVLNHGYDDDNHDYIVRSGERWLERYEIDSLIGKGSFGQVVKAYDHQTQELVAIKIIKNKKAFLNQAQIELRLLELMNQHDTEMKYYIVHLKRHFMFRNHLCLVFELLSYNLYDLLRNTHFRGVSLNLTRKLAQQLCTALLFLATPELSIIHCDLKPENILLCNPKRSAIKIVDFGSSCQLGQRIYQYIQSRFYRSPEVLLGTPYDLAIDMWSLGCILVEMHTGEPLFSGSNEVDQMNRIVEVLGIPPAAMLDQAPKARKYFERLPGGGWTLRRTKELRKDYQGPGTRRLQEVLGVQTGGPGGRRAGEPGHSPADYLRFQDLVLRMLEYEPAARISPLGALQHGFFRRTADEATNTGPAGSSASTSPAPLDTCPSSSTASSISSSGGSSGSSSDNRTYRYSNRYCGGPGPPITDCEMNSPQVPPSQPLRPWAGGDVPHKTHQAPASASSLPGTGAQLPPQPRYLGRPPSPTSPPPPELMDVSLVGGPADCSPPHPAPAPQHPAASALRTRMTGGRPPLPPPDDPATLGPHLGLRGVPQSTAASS
Compound,IC50 [1] [nM],IC50 [2] [nM],IC50 [3] [nM],IC50 [4] [nM],IC50 [5] [nM],IC50 [6] [nM],IC50 [7] [nM],IC50 (Casein kinase 2) [nM],EC50 (HT-22) [nM],Activity (U2OS),Activity (Cannabinoid receptor 1; filed as antagonist) [%],Activity [8],IC50 [9] [nM],IC50 [10] [nM],IC50 [11] [nM],Activity (Cannabinoid receptor 1) [%]
O=C1NC(Nc2ccccc2)=N/C1=C\c1ccc(F)cc1,2800,> 10000,3200,> 10000,9500,> 10000,> 10000,3200,2850,20.2,78,Non-Toxic,,,,
[2H]C1([2H])Oc2ccc(/C=C3\N=C(Nc4ccccc4)NC3=O)cc2O1,,500,40,170,,,,1600,4900,,,Non-Toxic,750,,,
O=C1NC(Nc2ccccc2)=N/C1=C\c1ccccc1,,,,,,,,,7200,7.7,44.6,Non-Toxic,,,,
O=C1NC(Nc2ccccc2)=N/C1=C\c1ccc(O)c(O)c1,130,2300,210,1500,150,320,840,1500,3300,10.1,,Non-Toxic,1200,270,1200,-22.3
COc1cc(/C=C2\N=C(Nc3ccc(N4CCNCC4)cc3)NC2=O)ccc1O,1200,> 10000,1200,3500,1300,2200,> 10000,,7000,6.3,,Non-Toxic,6500,2100,1500,-26.8
Cc1ccc(NC2=N/C(=C\c3ccc4c(c3)OCO4)C(=O)N2)c(C)c1,140,> 10000,240,1100,72,160,2500,2400,8000,5.6,65.6,Non-Toxic,1400,75,950,
CCCCCOc1ccc(NC2=N/C(=C\c3ccc4c(c3)OCO4)C(=O)N2)cc1,620,> 10000,850,3100,710,2300,≥ 10000,1300,1140,7,,Non-Toxic,> 10000,510,7000,37.4
CCCCCCc1ccc(NC2=N/C(=C\c3ccc4c(c3)OCO4)C(=O)N2)cc1,4100,,> 10000,,> 10000,> 10000,,,1190,6.5,75,Non-Toxic,,9500,,
O=C1NC(Nc2ccc(Oc3ccccc3)cc2)=N/C1=C\c1ccc2c(c1)OCO2,760,,1800,> 10000,920,4000,,,2400,4.6,73.5,Non-Toxic,> 10000,1100,,
COc1ccc(/C=C2\N=C(Nc3ccccc3)NC2=O)cc1O,4000,,4300,≥ 10000,2000,2800,1900,> 10000,5570,6.5,46.8,Non-Toxic,,2100,2400,
